Assays:
thrips = test: Thrips kill test on isolated thrips and treated plants; type: in vivo
Description: Obvious testing by using a loop and magnifier concluded that the Dragon Juice 50 kills 100% of the spider mites, even after 6 weeks in the refrigerator. […] The Inventor tested more H202 and the tea tree oil combinations.

plants = test: Plant size, produce and plant damage in indoor and outdoor gardens; type: in vivo; details: more H202 and tea tree oil combinations added to the mix
Protocol: This product was tested in the Inventor's garden. At the time the garden was infested with spider mites and thrips. There were cob webs and major plant damage. The option was to destroy the garden. It seemed hopeless. […] Originally the solution was too strong, and it severely damaged the plants and killed every living thing on the plants as well as the plants. After going back and testing each of the ingredients separately (a few weeks at a time over the course of five years) the Inventor concluded how much of each ingredient to use per gallon. After that, the Inventor combined the sugars and started adding each ingredient while testing shelf life and refrigerator life of Dragon Juice 50. […] The concentrate variations have been tested in indoor and outdoor gardens. The results have been fantastic as all of the products produced have been getting outstanding customer approval for quality, and flavor. […] It also helps to keep the plant healthier from the stress of the concentrated oils. The salt (see below) is another last minute ingredient included after studying and talking with a state health inspector. The Inventor realized that the salt breaks down selenium in the water so the plant can use the nutrients and convert the use of sugars more effectively. As the H202 takes away microorganisms, the vitamins, and carbohydrates rebuild a healthy environment for the plants new growth. […]

OO [H202, hydrogen peroxide]
effect on thrips (thrips): killed the thrips
plant damage (leaves) (plants): started burning the leaves
